The test system of assay [1] is Pancreatic cancer cells such as BxPC3, CFPAC1, PANC1, DANG, and PATU8902. The assay is described as follows: Crystal Violet cell growth with chemotherapy drugs in complete or P/S/G free media. It counts as cell-based, Human. Particulars: P/S/G free media vs complete media, +10% dialyzed FBS, 3 days, Crystal Violet staining. The method, then: A study was performed to evaluate the efficacy of a disclosed composition in the treatment of cancer when combined with a chemotherapy drug. Pancreatic cancer cells such as BxPC3, CFPAC1, PANC1, DANG, and PATU8902 were treated with either Gemcitabine (GEM), Paclitaxel (PAC), GEM+PAC, and FOLFIRINOX (which is a combination of 5FU, Oxaliplatin, Folinic acid, and Irinotecan), in combination with complete media, or with media free of the amino acids […]), as indicated in FIG. 4 rows A-D. Cells were seeded in 96-well plates and in complete media+10% FBS. 24 hours later, cells were washed with PBS followed by addition of the indicated drugs with either complete or P/S/G free media+10% dialyzed FBS. Cells were grown for 3 more days, and cell growth was measured using Crystal Violet staining. […] Error bars denote the standard deviation.

Assay [2] concerns Pancreatic cancer cell lines such as BxPC3, CFPAC1, PANC1, DANG and PATU8902. The assay is described as follows: Crystal Violet cell growth with serabelisib in complete or P/S/G free media. Particulars: P/S/G free media vs complete media, 3 days, Crystal Violet staining. Type of assay: cell-based, Human. On the procedure: A study was performed to evaluate the efficacy of disclosed compositions in the treatment of cancer when combined with a targeted anti-cancer therapy. Pancreatic cancer cell lines such as BxPC3, CFPAC1, PANC1, DANG and PATU8902 were treated with an alpha specific PI3K inhibitor, serabelisib. Cells were seeded in 96-well plates and in complete media+10% FBS. 24 hours later, cells were washed with PBS followed by addition of serabelisib with either complete or P/S/G free media+10% dialysed FBS (FIG. 6A-6F). Cells were grown for 3 more days and cell growth was measured using Crystal Violet staining. Error bars denote standard deviation. […] P/S/G starvation pushes the response curve down and to the left meaning lower concentrations of drug achieve the same cell kill.

The source of these data is patent US20250020651A1, “PERSONALIZED MODULATION THERAPY FOR CANCER” (Faeth Therapeutics, Inc., priority 2021, published 2025).

For the compound `CC(=O)O[C@H]1C(=O)[C@@]2(C)[C@H]([C@H](OC(=O)c3ccccc3)[C@]3(O)C[C@H](OC(=O)[C@H](O)[C@@H](NC(=O)c4ccccc4)c4ccccc4)C(C)=C1C3(C)C)[C@]1(OC(C)=O)CO[C@@H]1C[C@@H]2O` [paclitaxel, Paclitaxel], the “effect of restriction of proline, serine, and glycine on cell growth response to the drug” value in assay [1] is on record as “sensitized cancer cells”.

On to `Nc1nc2cc(-c3ccc4ncc(C(=O)N5CCOCC5)n4c3)ccc2o1` [serabelisib], for which the “cell kill by serabelisib under P/S/G starvation” value in assay [2] is recorded as “improved cell kill at lower drug concentrations”.

On to `Nc1ccn([C@@H]2O[C@H](CO)[C@@H](O)C2(F)F)c(=O)n1` [gemcitabine, Gemcitabine], for which the “effect of restriction of proline, serine, and glycine on cell growth response to the drug” value in assay [1] is “sensitized cancer cells”.
